Experimental data as given in patent US10501479B2, “Benzenesulfonyl-asymmetric ureas and medical uses thereof” (HELSINN HEALTHCARE SA, priority 2016, dated 2019).
Read-outs that look alike come from different tables or passages of the source.

Columns and labels:
Type in all cases: cell-based
[1] = molecular target: T1, GHSR-1a (HEK293/GHSR1a cell line) (Homo sapiens, UniProt Q92847); assay: Ghrelin agonist potency (EC50) with calcium FLIPR assay
T1 construct: expressed in transfected cells; host or cells: HEK293/GHSR1a cell line
Method in brief: (§1)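 Dye preload 30-60 min, RT or 37° C; compound in DMSO. Agonist mode: compound at t=20 sec, Ca2+ read 2 min. Antagonist mode: compound + ghrelin 10 nM at t=20 sec, 2 min read. EC50/IC50 from dose-response curves.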

[2] = molecular target: T2, recombinant human ghrelin receptor (HEK293/GRLN) (Homo sapiens, UniProt Q92847); assay: Ghrelin inverse agonist potency (EC50) with IP-1 (IP-One HTRF) assay; details: IP-1 assay
T2 construct: expressed in transfected cells
Method in brief: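 HEK293/GRLN cells were seeded 18-22 hours before the test, then exposed to compound in stimulation buffer for 1 hour at 37° C, 5% CO2. IP-1 was detected by IP-One HTRF (IP1-d2 plus Tb-cryptate, 1 hour RT), reading 620 and 665 nm; the inverse agonist EC50 was derived from this.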

[3] = molecular target: T1, GHSR-1a (HEK293/GHSR1a cell line); assay: Ghrelin antagonist potency (IC50) with calcium FLIPR assay, ghrelin 10 nM
Method in brief: as §1

[4] = HEK293/GHSR1a, read-out: Activity EC50/EMax: EC50 (ghrelin agonist potency)
[5] = HEK293/GRLN, read-out: Activity EC50 (ghrelin inverse agonist potency)
[6] = HEK293/GHSR1a, ghrelin 10 nM, read-out: Activity IC50 (ghrelin antagonist potency)
[7] = ghrelin agonist potency, read-out: Activity EC50/EMax
[8] = ghrelin inverse agonist potency, read-out: Activity EC50
[9] = ghrelin antagonist potency, read-out: Activity IC50

T2 sequence (Q92847 whole entry): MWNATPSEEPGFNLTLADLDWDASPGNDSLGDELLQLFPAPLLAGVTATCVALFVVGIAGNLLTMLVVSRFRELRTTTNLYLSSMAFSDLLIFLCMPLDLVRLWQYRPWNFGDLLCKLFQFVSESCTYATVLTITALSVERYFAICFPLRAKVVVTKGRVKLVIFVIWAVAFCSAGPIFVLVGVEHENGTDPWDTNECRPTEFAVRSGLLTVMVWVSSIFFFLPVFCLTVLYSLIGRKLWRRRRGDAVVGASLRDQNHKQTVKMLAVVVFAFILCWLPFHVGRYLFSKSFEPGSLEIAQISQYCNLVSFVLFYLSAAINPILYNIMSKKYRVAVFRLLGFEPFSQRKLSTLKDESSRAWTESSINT
T1 sequence (Q92847 whole entry): as above

Row | Structure (SMILES) | EC50 [1, 4] [nM] | EC50 [2, 5] [nM] | IC50 [3, 6] [nM] | EC50 [1, 7] [nM] | EC50 [2, 8] [nM] | IC50 [3, 9] [nM]
1 | COc1cc(S(=O)(=O)Cc2ccc3c(c2)CCNC3)ccc1NC(=O)N(C)C(C)c1ccccc1 (stereo not drawn) [H1413, 3-(2-methoxy-4-(((1,2,3,4-tetrahydroisoquinolin-6-yl)methyl)sulfonyl)phenyl)-1-methyl-1-(1-phenylethyl)urea] | > 30000 | 225 | 681 | – | – | –
2 | CC(c1ccccc1)N(C)C(=O)Nc1ccc(S(=O)(=O)Cc2ccc3c(c2)CCNC3)cc1F (stereo not drawn) [H1414, 3-(2-fluoro-4-(((1,2,3,4-tetrahydroisoquinolin-6-yl)methyl)sulfonyl)phenyl)-1-methyl-1-(1-phenylethyl)urea] | > 30000 | 589 | 2090 | – | – | –
3 | CC1Cc2cc(CS(=O)(=O)c3ccc(NC(=O)N(C)Cc4ccccc4)cc3)ccc2CN1 (stereo not drawn) [H1416, 1-benzyl-1-methyl-3-(4-(((3-methyl-1,2,3,4-tetrahydroisoquinolin-6-yl)methyl)sulfonyl)phenyl)urea] | > 30000 | 26.6 | 1040 | – | – | –
4 | CC1c2ccccc2CCN1C(=O)Nc1ccc(S(=O)(=O)Cc2ccc3c(c2)CN(C)C3)cc1 (stereo not drawn) [H1418, 1-methyl-N-(4-(((2-methylisoindolin-5-yl)methyl)sulfonyl)phenyl)-3,4-dihydroisoquinoline-2(1H)-carboxamide] | > 30000 | 69.5 | 2700 | – | – | –
5 | COc1cc(S(=O)(=O)Cc2ccc3c(c2)CCN(C)C3)ccc1NC(=O)N[C@H](C)c1ccc(OC)c(Cl)c1Cl [H1422, (R)-1-(1-(2,3-dichloro-4-methoxyphenyl)ethyl)-3-(2-methoxy-4-(((2-methyl-1,2,3,4-tetrahydroisoquinolin-6-yl)methyl)sulfonyl)phenyl)urea] | > 30000 | 0.7 | 29.4 | – | – | –
6 | COc1ccc([C@@H](C)NC(=O)Nc2ccc(S(=O)(=O)Cc3ccc4c(c3)CCN(C)C4)cc2F)c(Cl)c1Cl [H1423, (R)-1-(1-(2,3-dichloro-4-methoxyphenyl)ethyl)-3-(2-fluoro-4-(((2-methyl-1,2,3,4-tetrahydroisoquinolin-6-yl)methyl)sulfonyl)phenyl)urea] | > 30000 | 3.77 | 114 | – | – | –
7 | COc1cc(S(=O)(=O)Cc2cc(F)c3c(c2)CCNC3)ccc1NC(=O)NC(C)c1cccc(Cl)c1Cl (stereo not drawn) [H1424, 1-(1-(2,3-dichlorophenyl)ethyl)-3-(4-(((8-fluoro-1,2,3,4-tetrahydroisoquinolin-6-yl)methyl)sulfonyl)-2-methoxyphenyl)urea] | > 30000 | 8.9 | 15.4 | – | – | –
8 | CC(NC(=O)Nc1ccc(S(=O)(=O)Cc2ccc(CO)cc2)cc1)c1cccc(Cl)c1Cl (stereo not drawn) [H1430, 1-(1-(2,3-dichlorophenyl)ethyl)-3-(4-((4-(hydroxymethyl)benzyl)sulfonyl)phenyl)urea] | > 30000 | 56.4 | 2470 | – | – | –
9 | COc1cc(S(=O)(=O)Cc2ccc(CO)cc2)ccc1NC(=O)NC(C)c1c(F)cccc1F (stereo not drawn) [H1432, 1-(1-(2,6-difluorophenyl)ethyl)-3-(4-((4-(hydroxymethyl)benzyl)sulfonyl)-2-methoxyphenyl)urea] | > 30000 | 367 | 5500 | – | – | –
10 | COc1cc(S(=O)(=O)Cc2ccc(CO)cc2)ccc1NC(=O)NC(C)c1ccccc1 (stereo not drawn) [H1433, 1-(4-((4-(hydroxymethyl)benzyl)sulfonyl)-2-methoxyphenyl)-3-(1-phenylethyl)urea] | > 30000 | 473 | 3120 | – | – | –
11 | COc1cc(S(=O)(=O)Cc2ccc(CO)cc2)ccc1NC(=O)NC(C)c1cccc(Cl)c1Cl (stereo not drawn) [H1434, 1-(1-(2,3-dichlorophenyl)ethyl)-3-(4-((4-(hydroxymethyl)benzyl)sulfonyl)-2-methoxyphenyl)urea] | > 30000 | 61.2 | 857 | – | – | –
12 | COc1cc(S(=O)(=O)Cc2ccc(CO)cc2)ccc1NC(=O)NC(C)c1ccc(OC)c(Cl)c1Cl (stereo not drawn) [H1435, 1-(1-(2,3-dichloro-4-methoxyphenyl)ethyl)-3-(4-((4-(hydroxymethyl)benzyl)sulfonyl)-2-methoxyphenyl)urea] | > 30000 | > 10000 | > 30000 | – | – | –
13 | COc1cc(S(=O)(=O)Cc2ccc3c(c2)CCN(C)C3)ccc1NC(=O)NC(C)c1c(F)cccc1F (stereo not drawn) [H1436, 1-(1-(2,6-difluorophenyl)ethyl)-3-(2-methoxy-4-(((2-methyl-1,2,3,4-tetrahydroisoquinolin-6-yl)methyl)sulfonyl)phenyl)urea] | > 30000 | 4.3 | 19.5 | – | – | –
14 | COc1cc(S(=O)(=O)Cc2ccc3c(c2)CN(C)C3)ccc1NC(=O)NC(C)c1c(F)cccc1F (stereo not drawn) [H1437, 1-(1-(2,6-difluorophenyl)ethyl)-3-(2-methoxy-4-(((2-methylisoindolin-5-yl)methyl)sulfonyl)phenyl)urea] | > 30000 | 10 | 24.3 | – | – | –
15 | COc1cc(S(=O)(=O)Cc2ccc3c(c2)CN(C)C3)ccc1NC(=O)NC(C)c1ccccc1OC (stereo not drawn) [H1438, 1-(2-methoxy-4-(((2-methylisoindolin-5-yl)methyl)sulfonyl)phenyl)-3-(1-(2-methoxyphenyl)ethyl)urea] | > 30000 | 2.76 | 12.6 | – | – | –
16 | COc1cc(S(=O)(=O)Cc2cc3c(cc2F)CNCC3)ccc1NC(=O)NC(C)c1cccc(Cl)c1Cl (stereo not drawn) [H1439, 1-(1-(2,3-dichlorophenyl)ethyl)-3-(4-(((7-fluoro-1,2,3,4-tetrahydroisoquinolin-6-yl)methyl)sulfonyl)-2-methoxyphenyl)urea] | > 30000 | 14.1 | 12.4 | – | – | –
17 | COc1cc(S(=O)(=O)Cc2ccc3c(c2)CC(C)N(C)C3)ccc1NC(=O)NC(C)c1ccccc1 (stereo not drawn) [H1440, 1-(4-(((2,3-dimethyl-1,2,3,4-tetrahydroisoquinolin-6-yl)methyl)sulfonyl)-2-methoxyphenyl)-3-(1-phenylethyl)urea] | > 30000 | 2.9 | 4.4 | – | – | –
18 | COc1ccc(C(C)NC(=O)Nc2ccc(S(=O)(=O)Cc3ccc4c(c3)CCN(C)C4)cc2OC)cc1 (stereo not drawn) [H1442, 1-(2-methoxy-4-(((2-methyl-1,2,3,4-tetrahydroisoquinolin-6-yl)methyl)sulfonyl)phenyl)-3-(1-(4-methoxyphenyl)ethyl)urea] | > 30000 | 16.4 | 58.1 | – | – | –
19 | COc1cc(S(=O)(=O)Cc2ccc3c(c2)CCNC3)ccc1NC(=O)N(C)C(C)c1cccc(Cl)c1Cl (stereo not drawn) [H1443, 1-(1-(2,3-dichlorophenyl)ethyl)-3-(2-methoxy-4-(((1,2,3,4-tetrahydroisoquinolin-6-yl)methyl)sulfonyl)phenyl)-1-methylurea] | > 30000 | 85.8 | 68 | – | – | –
20 | COc1ccc(C(C)NC(=O)Nc2ccc(S(=O)(=O)Cc3ccc4c(c3)CNC4)cc2)cc1OC (stereo not drawn) [H1444, 1-(1-(3,4-dimethoxyphenyl)ethyl)-3-(4-((isoindolin-5-ylmethyl)sulfonyl)phenyl)urea] | > 30000 | 185 | 2860 | – | – | –
21 | COc1ccc(C(C)NC(=O)Nc2ccc(S(=O)(=O)Cc3ccc4c(c3)CN(C)C4)cc2)cc1OC (stereo not drawn) [H1449, 1-(1-(3,4-dimethoxyphenyl)ethyl)-3-(4-(((2-methylisoindolin-5-yl)methyl)sulfonyl)phenyl)urea] | > 30000 | 928 | 4170 | – | – | –
22 | COc1cccc(OC)c1C(C)NC(=O)Nc1ccc(S(=O)(=O)Cc2ccc3c(c2)CNC3)cc1 (stereo not drawn) [H1450, 1-(1-(2,6-dimethoxyphenyl)ethyl)-3-(4-((isoindolin-5-ylmethyl)sulfonyl)phenyl)urea] | > 30000 | 182 | 290 | – | – | –
23 | COc1cccc(OC)c1C(C)NC(=O)Nc1ccc(S(=O)(=O)Cc2ccc3c(c2)CN(C)C3)cc1 (stereo not drawn) [H1451, 1-(1-(2,6-dimethoxyphenyl)ethyl)-3-(4-(((2-methylisoindolin-5-yl)methyl)sulfonyl)phenyl)urea] | > 30000 | 33.3 | 68.5 | – | – | –
24 | CC(NC(=O)Nc1ccc(S(=O)(=O)Cc2ccc3c(c2)CNC3)cc1)c1ccc2c(c1)OCO2 (stereo not drawn) [H1452, 1-(1-(benzo[d][1,3]dioxol-5-yl)ethyl)-3-(4-((isoindolin-5-ylmethyl)sulfonyl)phenyl)urea] | > 30000 | 34.8 | 87 | – | – | –
25 | CC(NC(=O)Nc1ccc(S(=O)(=O)Cc2ccc3c(c2)CN(C)C3)cc1)c1ccc2c(c1)OCO2 (stereo not drawn) [H1453, 1-(1-(benzo[d][1,3]dioxol-5-yl)ethyl)-3-(4-(((2-methylisoindolin-5-yl)methyl)sulfonyl)phenyl)urea] | > 30000 | 46.8 | 109 | – | – | –
26 | NC(=O)C(NC(=O)Nc1ccc(S(=O)(=O)Cc2ccc3c(c2)CNC3)cc1)c1ccccc1 (stereo not drawn) [H1457, 2-(3-(4-((isoindolin-5-ylmethyl)sulfonyl)phenyl)ureido)-2-phenylacetamide] | – | – | – | > 30000 | 123 | 16600
27 | CC(NC(=O)N(O)c1ccc(S(=O)(=O)Cc2ccc3c(c2)CN(C)C3)cc1)c1ccccc1 (stereo not drawn) [H1458, 1-hydroxy-1-(4-(((2-methylisoindolin-5-yl)methyl)sulfonyl)phenyl)-3-(1-phenylethyl)urea] | – | – | – | > 30000 | 288 | 1170
